This note sets out measurements from patent publication US10696677B2 (Research Triangle Institute, priority 2016, dated 2020).

Molecules are shown by their SMILES.

The term Ki denotes a dissociation constant, usually derived from enzyme kinetics or from competition with a known ligand. Higher therefore signals a looser hold on the target. Usually melting point stands for the temperature of the solid-liquid transition.

The target of the first series is hCB1 (Homo sapiens, UniProt P21554). The series can be described thus: radioligand displacement binding at CB1 (membranes of CHO-K1 cells over-expressing receptor).
Chain of hCB1 (P21554 whole entry): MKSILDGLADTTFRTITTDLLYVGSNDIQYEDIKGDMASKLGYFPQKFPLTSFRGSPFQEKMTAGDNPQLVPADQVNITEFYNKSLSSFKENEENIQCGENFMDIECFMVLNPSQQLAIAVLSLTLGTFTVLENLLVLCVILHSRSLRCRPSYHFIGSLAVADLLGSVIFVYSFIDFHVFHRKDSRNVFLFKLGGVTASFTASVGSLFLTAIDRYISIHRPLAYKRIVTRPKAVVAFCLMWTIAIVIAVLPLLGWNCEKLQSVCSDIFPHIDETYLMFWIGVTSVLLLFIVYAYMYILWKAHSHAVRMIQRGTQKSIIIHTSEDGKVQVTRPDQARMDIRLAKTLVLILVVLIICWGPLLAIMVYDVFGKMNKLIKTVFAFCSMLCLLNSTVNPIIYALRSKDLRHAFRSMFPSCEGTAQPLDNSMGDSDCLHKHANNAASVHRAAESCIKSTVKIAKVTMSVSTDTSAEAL
Conditions: not given
Compound `O/N=C(\c1ccc(F)cc1)C1CCN(c2ncnc3c2nc(-c2ccccc2Cl)n3-c2ccc(Cl)cc2)CC1` [Compound 28, (Z)-{1-[8-(2-chlorophenyl)-9-(4-chlorophenyl)-9H-purin-6-yl]piperidin-4-yl}(4-fluorophenyl)methanone oxime] showed a Ki of 0.003 µM.

Another series has as its system MDCK. The series can be described thus: MDCK BBB Assay. The format is in vitro ADME. Particulars: MDCK BBB assay.
For the compound `O=S(=O)(NC1CCN(c2ncnc3c2nc(-c2ccccc2Cl)n3-c2ccc(Cl)cc2)CC1)c1ccc(F)c(F)c1` [Compound 7, N-{1-[8-(2-Chlorophenyl)-9-(4-chlorophenyl)-9H-purin-6-yl]piperidin-4-yl}-3,4-difluorobenzene-1-sulfonamide], the “% Permeable” value worked out at 0%.

For the compound `O=C(Nc1ccccc1)NC1CCN(c2ncnc3c2nc(-c2ccccc2Cl)n3-c2ccc(Cl)cc2)CC1` [Compound 18, 3-{1-[8-(2-Chlorophenyl)-9-(4-chlorophenyl)-9H-purin-6-yl]piperidin-4-yl}-1-phenylurea], the “% Permeable” value is recorded as 0%.

`CC(C)(C)OC(=O)N1CCN(c2ncnc3c2nc(-c2ccccc2Cl)n3-c2ccc(Cl)cc2)CC1` [Compound 58, tert-Butyl 4-[8-(2-Chlorophenyl)-9-(4-chlorophenyl)-9H-purin-6-yl]piperazine-1-carboxylate]: the “% Permeable” value worked out at 3%.

On to `Clc1ccc(-n2c(-c3ccccc3Cl)nc3c(N4CCN(c5ccccn5)CC4)ncnc32)cc1` [Compound 67, 8-(2-Chlorophenyl)-9-(4-chlorophenyl)-6-(4-pyridin-2-ylpiperazin-1-yl)-9H-purine], for which the “% Permeable” value was 0%.

Take `COc1ccc(N2CCN(c3ncnc4c3nc(-c3ccccc3Cl)n4-c3ccc(Cl)cc3)CC2)cc1` [Compound 72, 8-(2-Chlorophenyl)-9-(4-chlorophenyl)-6-[4-(4-methoxyphenyl)piperazin-1-yl]-9H-purine]: the “% Permeable” value turned out to be 0%.

Take `N#Cc1ccccc1N1CCN(c2ncnc3c2nc(-c2ccccc2Cl)n3-c2ccc(Cl)cc2)CC1` [Compound 74, 2-{4-[8-(2-Chlorophenyl)-9-(4-chlorophenyl)-9H-purin-6-yl]piperazin-1-yl}benzonitrile]: the “% Permeable” value was determined as 0%.

Turning to `Clc1ccc(CN2CCN(c3ncnc4c3nc(-c3ccccc3Cl)n4-c3ccc(Cl)cc3)CC2)cc1` [Compound 77, 6-[4-(4-Chlorobenzyl)piperazin-1-yl]-8-(2-chlorophenyl)-9-(4-chlorophenyl)-9H-purine], the “% Permeable” value was about 100%.

Still in this series, the particulars now being: MDCK cells.
Turning to `O=S(=O)(NC1CCN(c2ncnc3c2nc(-c2ccccc2Cl)n3-c2ccc(Cl)cc2)CC1)c1ccc(F)c(F)c1` [Compound 7, N-{1-[8-(2-Chlorophenyl)-9-(4-chlorophenyl)-9H-purin-6-yl]piperidin-4-yl}-3,4-difluorobenzene-1-sulfonamide], the “MDCK BBB Assay (Basolateral/Apical Peak Area Ratio) Mean” value is listed as 0.

Tested on in another series: not given
Assay: not given
Conditions: not given
`CC1(NC(=O)NC2CCC(F)(F)CC2)CCN(c2ncnc3c2nc(-c2ccccc2Cl)n3-c2ccc(Cl)cc2)CC1` came in with a melting point of 175 to 177 °C.

In turn, `O=S(=O)(NC1CCN(c2ncnc3c2nc(-c2ccccc2Cl)n3-c2ccc(Cl)cc2)CC1)c1ccc(F)c(F)c1` [Compound 7, N-{1-[8-(2-Chlorophenyl)-9-(4-chlorophenyl)-9H-purin-6-yl]piperidin-4-yl}-3,4-difluorobenzene-1-sulfonamide] gave a melting point of 183 to 184 °C.

With `O=S(=O)(NC1CCN(c2ncnc3c2nc(-c2ccccc2Cl)n3-c2ccc(OC(F)F)nc2)CC1)c1ccc(F)c(F)c1` [Compound 8, N-{1-[8-(2-Chlorophenyl)-9-[6-(difluoromethoxy)pyridin-3-yl]-9H-purin-6-yl]piperidin-4-yl}-3,4-difluorobenzene-1-sulfonamide], the melting point was 212 to 213 °C.

In turn, `O=S(=O)(NC1CCN(c2ncnc3c2nc(-c2ccccc2Cl)n3-c2ccc(C(F)(F)F)nc2)CC1)c1ccc(F)c(F)c1` [Compound 10, N-{1-[8-(2-Chlorophenyl)-9-[6-(trifluoromethyl)pyridin-3-yl]-9H-purin-6-yl]piperidin-4-yl}-3,4-difluorobenzene-1-sulfonamide] registered a melting point of 214 to 215 °C.

As to `Cc1cc(-n2c(-c3ccccc3Cl)nc3c(N4CCC(NS(=O)(=O)c5ccc(F)c(F)c5)CC4)ncnc32)no1` [Compound 11, N-{1-[8-(2-Chlorophenyl)-9-(5-methyl-1,2-oxazol-3-yl)-9H-purin-6-yl]piperidin-4-yl}-3,4-difluorobenzene-1-sulfonamide], the melting point was 180 to 182 °C.

Compound `Cn1ccc(-n2c(-c3ccccc3Cl)nc3c(N4CCC(NS(=O)(=O)c5ccc(F)c(F)c5)CC4)ncnc32)n1` [Compound 13, N-{1-[8-(2-Chlorophenyl)-9-(1-methyl-1H-pyrazol-3-yl)-9H-purin-6-yl]piperidin-4-yl}-3,4-difluorobenzene-1-sulfonamide] came in with a melting point of 206 to 208 °C.

As to `CCCCC(=O)NC1CCN(c2ncnc3c2nc(-c2ccccc2Cl)n3-c2ccc(C(F)(F)F)nc2)CC1` [Compound 14, N-{1-[8-(2-Chlorophenyl)-9-[6-(trifluoromethyl)pyridin-3-yl]-9H-purin-6-yl]piperidin-4-yl}pentanamide], the melting point was 192 to 193 °C.

In turn, `O=C(NCC1CCCCC1)NC1CCN(c2ncnc3c2nc(-c2ccccc2Cl)n3-c2ccc(C(F)(F)F)nc2)CC1` [Compound 16, 3-{1-[8-(2-Chlorophenyl)-9-[6-(trifluoromethyl)pyridin-3-yl]-9H-purin-6-yl]piperidin-4-yl}-1-(cyclohexylmethyl)urea] had a melting point of 230 to 232 °C.

On to `O=C(NCC1CCCCC1)NC1CCN(c2ncnc3c2nc(-c2ccccc2Cl)n3-c2ccc(OC(F)F)nc2)CC1` [Compound 17, 3-{1-[8-(2-Chlorophenyl)-9-[6-(difluoromethoxy)pyridin-3-yl]-9H-purin-6-yl]piperidin-4-yl}-1-(cyclohexylmethyl)urea], for which the melting point lay within 141 to 143 °C.

For `O=C(Nc1ccccc1F)NC1CCN(c2ncnc3c2nc(-c2ccccc2Cl)n3-c2ccc(C(F)(F)F)nc2)CC1` [Compound 20, 3-{1-[8-(2-Chlorophenyl)-9-[6-(trifluoromethyl)pyridin-3-yl]-9H-purin-6-yl]piperidin-4-yl}-1-(2-fluorophenyl)urea], the melting point lay within 227 to 228 °C.

`O=C(Nc1ccccc1F)NC1CCN(c2ncnc3c2nc(-c2ccccc2Cl)n3-c2ccc(OC(F)F)nc2)CC1` [Compound 21, 3-{1-[8-(2-Chlorophenyl)-9-[6-(difluoromethoxy)pyridin-3-yl]-9H-purin-6-yl]piperidin-4-yl}-1-(2-fluorophenyl)urea] yielded a melting point of 140 to 142 °C.

Compound `O=C(Nc1ccc(F)cc1F)NC1CCN(c2ncnc3c2nc(-c2ccccc2Cl)n3-c2ccc(Cl)cc2)CC1` [Compound 22, 3-{1-[8-(2-Chlorophenyl)-9-(4-chlorophenyl)-9H-purin-6-yl]piperidin-4-yl}-1-(2,4-difluorophenyl)urea] came in with a melting point of 140 to 142 °C.

Compound `O=C(Nc1ccc(C(F)(F)F)nc1)NC1CCN(c2ncnc3c2nc(-c2ccccc2Cl)n3-c2ccc(Cl)cc2)CC1` [Compound 24, 3-{1-[8-(2-Chlorophenyl)-9-(4-chlorophenyl)-9H-purin-6-yl]piperidin-4-yl}-1-[6-(trifluoromethyl)pyridin-3-yl]urea] came in with a melting point of 140 to 142 °C.

Compound `Cc1cc(NC(=O)N2CCN(c3ncnc4c3nc(-c3ccccc3Cl)n4-c3ccc(Cl)cc3)CC2)no1` [Compound 50] registered a melting point of 230 to 231 °C.

Regarding `N#Cc1ccccc1CN1CCN(c2ncnc3c2nc(-c2ccccc2Cl)n3-c2ccc(Cl)cc2)CC1` [Compound 75, 6-[4-(2-Cyanobenzyl)piperazin-1-yl]-8-(2-chlorophenyl)-9-(4-chlorophenyl)-9H-purine], the melting point is 127 to 128 °C.

On to `FC(F)(F)c1ccccc1CN1CCN(c2ncnc3c2nc(-c2ccccc2Cl)n3-c2ccc(Cl)cc2)CC1` [Compound 111, 8-(2-Chlorophenyl)-9-(4-chlorophenyl)-6-{4-[2-(trifluoromethyl)benzyl]piperazin-1-yl}-9H-purine], for which the melting point is 119 to 121 °C.

On to `Cc1c(CN2CCN(c3ncnc4c3nc(-c3ccccc3Cl)n4-c3ccc(Cl)cc3)CC2)cnn1C` [Compound 114, 8-(2-Chlorophenyl)-9-(4-chlorophenyl)-6-{4-[(1,5-dimethyl-1H-pyrazol-4-yl)methyl]piperazin-1-yl}-9H-purine], for which the melting point was 138 to 139 °C.

`O=C(NC1CCN(c2ncnc3c2nc(-c2ccccc2Cl)n3-c2ccc(Cl)cc2)CC1)NC1CCC(F)(F)CC1` [Compound 124, 3-{1-[8-(2-Chlorophenyl)-9-(4-chlorophenyl)-9H-purin-6-yl]piperidin-4-yl}-1-(4,4-difluorocyclohexyl)urea] returned a melting point of 228 to 229 °C.

In the case of `CC1(NC(=O)NC2CCN(c3ncnc4c3nc(-c3ccccc3Cl)n4-c3ccc(Cl)cc3)CC2)CCC(F)(F)CC1` [Compound 126, 3-{1-[8-(2-Chlorophenyl)-9-(4-chlorophenyl)-9H-purin-6-yl]piperidin-4-yl}-1-(4,4-difluoro-1-methylcyclohexyl)urea], the melting point lay in the range of 160 to 162 °C.

In turn, `O=C(NCC1CCC(F)(F)CC1)NC1CCN(c2ncnc3c2nc(-c2ccccc2Cl)n3-c2ccc(Cl)cc2)CC1` [Compound 127, 3-{1-[8-(2-Chlorophenyl)-9-(4-chlorophenyl)-9H-purin-6-yl]piperidin-4-yl}-1-[(4,4-difluorocyclohexyl)methyl]urea] yielded a melting point of 135 to 137 °C.

As for `O=C(NCc1ccc(F)cc1)NC1CCN(c2ncnc3c2nc(-c2ccccc2Cl)n3-c2ccc(Cl)cc2)CC1` [Compound 128, 3-{1-[8-(2-Chlorophenyl)-9-(4-chlorophenyl)-9H-purin-6-yl]piperidin-4-yl}-1-[(4-fluorophenyl)methyl]urea], the melting point lay in the range of 184 to 185 °C.

Another series deals with hCB2 (Homo sapiens, UniProt P34972). The series can be described thus: radioligand displacement binding at CB2 ([3H]CP55940, membranes of CHO-K1 cells over-expressing receptor).
Chain of hCB2 (P34972 whole entry): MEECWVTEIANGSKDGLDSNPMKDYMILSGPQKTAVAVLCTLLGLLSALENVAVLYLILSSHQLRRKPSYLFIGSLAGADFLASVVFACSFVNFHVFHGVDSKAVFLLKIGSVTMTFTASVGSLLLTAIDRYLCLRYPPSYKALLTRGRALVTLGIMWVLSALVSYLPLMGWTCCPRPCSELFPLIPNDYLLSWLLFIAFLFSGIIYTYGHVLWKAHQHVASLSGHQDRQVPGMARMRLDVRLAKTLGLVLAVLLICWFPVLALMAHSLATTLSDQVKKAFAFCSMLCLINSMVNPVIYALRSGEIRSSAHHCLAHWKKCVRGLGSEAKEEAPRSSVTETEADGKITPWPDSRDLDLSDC
Conditions: not given
In turn, `O/N=C(\c1ccc(F)cc1)C1CCN(c2ncnc3c2nc(-c2ccccc2Cl)n3-c2ccc(Cl)cc2)CC1` [Compound 28, (Z)-{1-[8-(2-chlorophenyl)-9-(4-chlorophenyl)-9H-purin-6-yl]piperidin-4-yl}(4-fluorophenyl)methanone oxime] gave an inhibition constant Ki of 11 µM.

Take `CC(C)(C)OC(=O)N1CCN(c2ncnc3c2nc(-c2ccccc2Cl)n3-c2ccc(Cl)cc2)CC1` [Compound 58, tert-Butyl 4-[8-(2-Chlorophenyl)-9-(4-chlorophenyl)-9H-purin-6-yl]piperazine-1-carboxylate]: the Ki was 3.35 µM.

`Cc1ccccc1CN1CCN(c2ncnc3c2nc(-c2ccccc2Cl)n3-c2ccc(Cl)cc2)CC1` [Compound 100, 8-(2-Chlorophenyl)-9-(4-chlorophenyl)-6-[4-(2-methylbenzyl)piperazin-1-yl]-9H-purine] yielded an inhibitory constant (Ki) of 1.25 µM.

In turn, `N=C(Nc1ccc(F)cc1)N1CCN(c2ncnc3c2nc(-c2ccccc2Cl)n3-c2ccc(Cl)cc2)CC1` [Compound 116, 4-[8-(2-chlorophenyl)-9-(4-chlorophenyl)-9H-purin-6-yl]-N-(4-fluorophenyl)piperazine-1-carboximidamide] registered a Ki of over 6 µM.
